Values of other authors, collected in publication PMC9632963, “Preclinical characterization and phase I clinical trial of CT053PTSA targets MET, AXL, and VEGFR2 in patients with advanced solid tumors” (Frontiers in Immunology, 2022).
Like-named read-outs stand apart in the source and are kept apart here.

Experiments:
[1] = set-up: method as in PMID 27734291; conditions: cited from earlier work
[2] = tested on: Japanese patients with NSCLC; set-up: method as in PMID 30718102; conditions: cited from earlier work
MET [3] = tested on: MET; set-up: method as in PMID 18089725; conditions: HOP92 cells; read-out: IC50, phosphorylation of MET; cited from earlier work
MET [4] = tested on: MET; set-up: method as in PMID 18089725; conditions: NCI-H69 cells; read-out: IC50, phosphorylation of MET; cited from earlier work
patients = tested on: patients; set-up: method as in PMID 30833489; conditions: 20/50 patients; cited from earlier work

## COc1cc2nccc(Oc3ccc(NC(=O)C4(C(=O)Nc5ccc(F)cc5)CC4)cc3)c2cc1OC [cabozantinib]
[1]
  half-life: 108 to 126 h
  median Tmax: 4 h
[2]; 16/23 patients
  patients with ≥ grade 3 AEs: 70%
[2]
  AE: diarrhea: 78%
  AE: hypertension: 87%
  AE: increased alanine aminotransferase: 95%
  AE: increased aspartate aminotransferase: 95%
  AE: palmar-plantar erythrodysesthesia: 100%

## C[C@@H](Oc1cc(-c2cnn(C3CCNCC3)c2)cnc1N)c1c(Cl)ccc(F)c1Cl [crizotinib]
MET [3]
  IC50: 16 nM
MET [4]
  IC50: […]

## Cc1ccc(C(=O)Nc2ccc(Oc3cc4cnn(C)c4cc3-c3cn[nH]c3)c(F)c2)c(=O)n1-c1ccc(F)cc1 [merestinib]
patients
  patients with ≥ grade 3 TRAEs: 40%
